Measured values: patent publication US9073905B2, “Rock inhibitors” (Amakem NV, priority 2011, dated 2015)
pEC50, pIC50: −log10 of the molar value. “Also recorded” adds a separate entry of the source.

Assays:
ROCK2 = ROCK2 (Homo sapiens, UniProt O75116); assay: Kinase inhibition (ROCKI & ROCKII), radiometric 33P-ATP biochemical assay; conditions: for inhibitory activity against ROCK (in words): summary of point C1.1
Method: On-target activity against ROCK was measured in a biochemical assay, using the following reagents: Base Reaction buffer; 20 mM Hepes (pH 7.5), 10 mM MgCl2, 1 mM EGTA, 0.02% Brij35, 0.02 mg/ml BSA, 0.1 mM Na3VO4, 2 mM DTT, 1% DMSO. Required cofactors are added individually to each kinase reaction. The reaction procedure first involved the preparation of a peptide substrate in a freshly prepared reaction buffer. Required cofactors were then added to the substrate solution. ROCK (1 nM final concentration) was then delivered to the substrate solution. After gentle mix, DMSO solutions of the test compounds were added to the enzyme. Substrate mix ^33P-ATP (specific activity 0.01 μCi/μl final) was then delivered into the reaction mixture to initiate the reaction. The kinase reaction was incubated for 120 min. at room temperature. Reactions were then spotted onto P81 ion exchange paper (Whatman #3698-915). Filters were washed extensively in 0.1% Phosphoric acid. A radiometric count was then performed and IC50 values were subsequently determined.
The IC50 values obtained (in accordance with the protocol set forth above) are represented as follows: “+++” means IC50 below 0.1 μM, “++” means IC50 between 0.1 μM and 1 μM; “+” means IC50 between 1 and 10 μM and “ND” means “not determined yet”.

[1] = tested on: normotensive New Zeland White rabbits; assay: Intraocular pressure (IOP) lowering in normotensive rabbits; format: in vivo, rabbit
Method: A detailed example of the IOP lowering effects of the compounds of the invention is here provided for compound 14. Compound 14 was here formulated as a 0.3% solution of pH=6.91 in Water/PEG 400 1:1.
IOP of to normotensive New Zeland White rabbits (n=3) was measured using a Tonolab tonometer, at 9h00, prior to compound administration.
At 9h30, one drop (50 μl) of the formulated solution was administered to rabbits, in the right eye (OD); while one drop (50 μl) of the vehicle solution was administered to the left eye (OS). IOP was then recorded in 1 h intervals until 17 h.

[2] = Stability assay in human plasma; format: in vitro ADME; conditions: 1 μM compound, LC-MS/MS, read-out: t½ human plasma
Method: (§1) Compounds are incubated at a concentration of 1 μM in rat (mice or rabbit) or human plasma. Samples are taken at fixed time points and the remnant of compound is determined by LC-MS/MS after protein precipitation. Half life is expressed in minutes.

[3] = Stability towards drug metabolizing enzymes in lung S9; format: in vitro ADME, human; conditions: for half-life at 1 μM: human
Method: A 1 μM solution of the ROCK inhibitors is incubated with a reaction mixture containing lung S9 (from smokers) as well as the cofactors NADPH, UDPGA, PAPS and GSH. Samples are collected at 0, 15, 30 and 60 minutes post incubation. Negative control samples incubated with ROCK inhibitors and S9 fraction in the absence of cofactors are run in parallel. By using LC-MS/MS analysis, the percent of ROCK compounds remaining at each time point, the metabolic half-life of the ROCK compounds (expressed in minutes) and the metabolic half-life of the control compounds are determined.

[4] = Stability assay in rabbit aqueous humor; format: in vitro ADME; conditions: for half-life at 1 μM: rabbit, aqueous humor, read-out: t½ AH
Method: Compounds are incubated at a concentration of 1 μM in rabbit aqueous humor (AH). Samples are taken at fixed time points and the remnant of compound is determined by LC-MS/MS after protein precipitation. Half life is expressed in minutes.

[5] = Stability in plasma, species not stated; format: in vitro ADME; conditions: for half-life at 1 μM: comparison table, plasma species not given, read-out: t½ Plasma; for half life in plasma (in words): point C.2.1
Method: as §1

[6] = tested on: MLC-T18/S19 phosphorylation; assay: Myosin light chain phosphorylation assay (ELISA) in A7r5 cells; format: cell-based, Rat; conditions: for functional activity in the MLC phosphorylation assay (in words): FIG. 1; for pIC50 / pEC50: Rattus norvegicus; for pIC50: A7R5, comparison table, MLC phosphorylation, read-out: IC50 MLC-PP; for pEC50: MLC-T18/S19 phosphorylation, A7r5 cells, serum-free medium
Method: Rat smooth muscle cell line A7r5 is used. The endogenous expression of ROCK esults in a constitutive phosphorylation of the regulatory myosin light chain at T18/S19. A7r5 cells were plated in DMEM supplemented with 10% FCS in multiwall cell culture plates. After serum starvation overnight, cells were incubated with compounds in serum-free medium.
Quantification of MLC-T18/S19 phosphorylation is assesses in 96 well-plates via ELISA using a phspho-MLC-T18/S19 specific antibody and a secondary detection antibody. Raw data were converted into percent substrate phosphorylation relative to high controls, which were set to 100%.
EC50 values were determined using GraphPad Prism 5.01 software using a nonlinear regression curve fit with variable hill slope.
The EC50 values obtained (in accordance with the protocols set forth above) are represented as follows: “+++” means EC50 below 0.3 μM, “++” means EC50 between 0.3 μM and 1 μM; “+” means EC50 between 1 and 10 μM and “−” means EC50>10 μM.

[7] = Stability assay in mice plasma; format: in vitro ADME; conditions: mouse, 1 μM compound, LC-MS/MS, read-out: t½ mice plasma
Method: as §1

[8] = ROCK 1 nM, 120 min at room temperature
[9] = 1 μM, lung S9 from smokers, cofactors NADPH, UDPGA, PAPS, GSH
[10] = lung S9 (from smokers), text summary of point C.2.2, read-out: half-life in lung tissue

Sequence of ROCK2 (O75116 whole entry, species assumed): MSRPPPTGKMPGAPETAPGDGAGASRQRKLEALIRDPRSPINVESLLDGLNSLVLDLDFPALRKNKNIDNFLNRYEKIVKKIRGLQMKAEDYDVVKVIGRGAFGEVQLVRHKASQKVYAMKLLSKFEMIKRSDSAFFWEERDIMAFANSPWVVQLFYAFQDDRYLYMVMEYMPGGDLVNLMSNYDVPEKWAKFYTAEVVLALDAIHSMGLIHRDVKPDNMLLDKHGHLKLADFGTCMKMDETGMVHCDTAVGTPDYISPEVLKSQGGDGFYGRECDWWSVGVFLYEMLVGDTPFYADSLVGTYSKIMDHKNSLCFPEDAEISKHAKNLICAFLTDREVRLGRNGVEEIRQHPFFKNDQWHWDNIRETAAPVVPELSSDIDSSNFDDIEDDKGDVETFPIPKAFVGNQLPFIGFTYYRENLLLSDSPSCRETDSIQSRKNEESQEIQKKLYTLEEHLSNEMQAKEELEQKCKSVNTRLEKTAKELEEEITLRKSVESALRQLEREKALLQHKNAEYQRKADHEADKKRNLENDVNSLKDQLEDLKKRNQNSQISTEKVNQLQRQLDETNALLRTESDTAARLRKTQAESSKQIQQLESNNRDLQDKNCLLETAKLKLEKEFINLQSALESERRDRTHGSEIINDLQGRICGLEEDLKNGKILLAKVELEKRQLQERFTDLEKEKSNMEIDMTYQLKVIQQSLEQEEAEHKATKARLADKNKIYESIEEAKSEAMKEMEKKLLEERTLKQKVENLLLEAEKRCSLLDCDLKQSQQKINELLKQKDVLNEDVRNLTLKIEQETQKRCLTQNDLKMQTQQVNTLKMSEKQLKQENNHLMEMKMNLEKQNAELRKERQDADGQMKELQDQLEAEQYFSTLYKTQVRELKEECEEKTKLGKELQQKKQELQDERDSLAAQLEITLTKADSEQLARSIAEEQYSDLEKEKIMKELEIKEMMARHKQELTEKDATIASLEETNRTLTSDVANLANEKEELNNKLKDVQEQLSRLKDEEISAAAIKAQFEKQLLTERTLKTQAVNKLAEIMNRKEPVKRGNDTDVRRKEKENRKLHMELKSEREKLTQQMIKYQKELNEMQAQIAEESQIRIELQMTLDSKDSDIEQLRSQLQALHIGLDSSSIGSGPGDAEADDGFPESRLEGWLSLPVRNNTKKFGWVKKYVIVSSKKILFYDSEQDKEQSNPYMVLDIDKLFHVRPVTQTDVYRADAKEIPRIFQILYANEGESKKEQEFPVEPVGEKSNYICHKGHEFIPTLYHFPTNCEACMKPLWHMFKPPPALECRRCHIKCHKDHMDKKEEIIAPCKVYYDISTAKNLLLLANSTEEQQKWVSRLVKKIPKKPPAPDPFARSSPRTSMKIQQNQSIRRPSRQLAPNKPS

pIC50 (ROCK2; [8]) | pIC50 (ROCK2; comparison table) | inhibitory activity against ROCK (in words) (ROCK2) | half-life at 1 μM [2] [min] | half-life at 1 μM ([4]; 1 μM in rabbit aqueous humor) [min] | half-life at 1 μM ([4]; comparison table) [min] | half-life at 1 μM [5] [min] | half life in plasma (in words) [5] | pIC50 [6] | pEC50 [6] | t½ human lung S9 [3, 9] [min] | t½ lung S9 ([3]; comparison table) [min] | half-life at 1 μM [3, 10] [min] | half-life at 1 μM [7] [min] | SMILES | functional activity in the MLC phosphorylation assay (in words) [6] | also measured
> 7.00 | 8.47 | strong inhibitory activity | < 5 | > 120 | > 120 | < 5 | short half life | 6.62 | > 6.52 |  |  |  |  | O=C(OCC1CCCO1)c1cccc(CN2CCCC(Nc3ccc4[nH]ncc4c3)C2)c1 (centres unmarked) [Compound 14] | functionally active compound; also recorded: display functional activity | time after administration until which the IOP decrease is statistically significant (P≦0.05) ([1]; 0.3% solution, one drop at 9h30, until the 14 h time point): 4.30 h; IOP decrease following administration (in words) ([1]; 0.3% solution, one drop, visible until 17 h): pronounced IOP decrease; Average IOP OD (mmHg) ([1]; 9 h, right eye (OD), prior to compound administration (baseline), n=3): 9.89 mmHg; Average IOP OD (mmHg) ([1]; 10 h, one drop (50 μl) 0.3% solution in Water/PEG 400 1:1 at 9h30, right eye (OD)): 7.67 mmHg; Average IOP OD (mmHg) ([1]; 11 h, one drop (50 μl) 0.3% solution at 9h30, right eye (OD)): 6.44 mmHg; Average IOP OD (mmHg) ([1]; 12 h, one drop (50 μl) 0.3% solution at 9h30, right eye (OD)): 6.22 mmHg; Average IOP OD (mmHg) ([1]; 13 h, one drop (50 μl) 0.3% solution at 9h30, right eye (OD)): 7.00 mmHg; Average IOP OD (mmHg) ([1]; 14 h, one drop (50 μl) 0.3% solution at 9h30, right eye (OD)): 6.44 mmHg; Average IOP OD (mmHg) ([1]; 15 h, one drop (50 μl) 0.3% solution at 9h30, right eye (OD)): 7.67 mmHg; Average IOP OD (mmHg) ([1]; 16 h, one drop (50 μl) 0.3% solution at 9h30, right eye (OD)): 7.89 mmHg; Average IOP OD (mmHg) ([1]; 17 h, one drop (50 μl) 0.3% solution at 9h30, right eye (OD)): 8.11 mmHg; half-life at 1 μM ([3]; lung S9 (from smokers), comparison table, read-out: t½ lung S9): 9 min; half-life in aqueous humor compared with plasma (in words) ([4]; text summary of point C.2.3): significantly longer half-life in aqueous humor than in plasma
> 7.00 | 8.72 | strong inhibitory activity | 5 |  |  | < 5 | short half life | 6.40 | 6.00 to 6.52 | >240 | >240 | > 240 | 2.5 | O=C(NCCSC1CCOC1=O)c1cccc(CN2CCCC(Nc3cccc4cnccc34)C2)c1 (centres unmarked) [Compound 26] | display functional activity | 
> 7.00 |  | strong inhibitory activity | < 5 |  |  |  | short half life |  | 6.00 to 6.52 | >240 |  | > 240 | 2.2 | O=C(NCCSC1CCOC1=O)c1cccc(CN2CCCC(Nc3ccc4[nH]ncc4c3)C2)c1 (centres unmarked) [Compound 28] | display functional activity | 
> 7.00 | 7.60 |  | 25 | > 120 | 98 | 22 |  | 6.80 | > 6.52 |  | >240 |  |  | COC(=O)c1cccc(NC(=O)c2cccc(CN3CCC(Nc4cccc5cnccc45)C3)c2)c1 (centres unmarked) [Compound 32] |  | half-life at 1 μM ([3]; 1 μM, lung S9 from smokers, cofactors NADPH, UDPGA, PAPS, GSH, read-out: t½ human lung S9): > 240 min
